In test [1] the target is Carbonic anhydrase 12 (Homo sapiens) (UniProt O43570).
Description: Inhibition of human recombinant carbonic anhydrase 12 catalytic domain by CO2 hydrase method
For test [2], the target named is Carbonic anhydrase 2 (Homo sapiens) (UniProt P00918).
Description: Inhibition of human recombinant carbonic anhydrase 2
Test [3] deals with Carbonic anhydrase 1 (Homo sapiens) (UniProt P00915).
Description: Inhibition of human recombinant carbonic anhydrase 1
Test [4] deals with Carbonic anhydrase 9 (Homo sapiens) (UniProt Q16790).
Description: Inhibition of human recombinant carbonic anhydrase 9 catalytic domain by CO2 hydrase method

SMILES strings stand for the structures. A value given as a limit tells only on which side of the number the result lay.

Chain of Carbonic anhydrase 1 (Homo sapiens) (P00915 2-261 limits assumed): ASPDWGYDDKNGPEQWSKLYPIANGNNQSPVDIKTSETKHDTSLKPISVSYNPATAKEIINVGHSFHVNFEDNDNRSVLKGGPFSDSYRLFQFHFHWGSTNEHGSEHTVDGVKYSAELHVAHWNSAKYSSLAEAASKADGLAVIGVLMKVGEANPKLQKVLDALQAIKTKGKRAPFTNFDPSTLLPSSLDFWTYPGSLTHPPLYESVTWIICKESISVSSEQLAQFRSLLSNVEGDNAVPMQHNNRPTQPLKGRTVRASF
Chain of Carbonic anhydrase 12 (Homo sapiens) (O43570 whole entry): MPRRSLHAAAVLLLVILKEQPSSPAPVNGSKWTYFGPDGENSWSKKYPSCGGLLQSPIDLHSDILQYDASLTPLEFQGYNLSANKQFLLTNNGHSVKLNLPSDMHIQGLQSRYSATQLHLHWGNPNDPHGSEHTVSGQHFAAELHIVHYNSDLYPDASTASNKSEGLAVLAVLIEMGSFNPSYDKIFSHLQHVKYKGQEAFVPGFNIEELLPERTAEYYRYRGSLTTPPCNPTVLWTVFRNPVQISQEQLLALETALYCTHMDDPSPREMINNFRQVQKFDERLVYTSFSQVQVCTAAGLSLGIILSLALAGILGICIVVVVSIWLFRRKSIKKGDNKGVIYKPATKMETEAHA

For `O=S(=O)([O-])[O-].[Na+].[Na+]`, the Kinact in test [1] was 7.7 10^5nM; in test [2], > 300 10^6nM; in test [3], 6.3 10^6nM; in test [4], > 300 10^6nM.
Turning to `NS(=O)(=O)O`, the Kinact is 10.7 10^3nM in test [1], 0.39 10^6nM in test [2], 0.21 10^5nM in test [3] and 9.2 10^3nM in test [4].

The record behind these values is ChEMBL document CHEMBL1147893, “Carbonic anhydrase inhibitors: the X-ray crystal structure of the adduct of N-hydroxysulfamide with isozyme II explains why this new zinc binding function is effective in the design of potent inhibitors” (Bioorg Med Chem Lett, 2007).
